Target: SHP2 (Homo sapiens (Human), UniProt Q06124)
Assay: SHP2 Allosteric Inhibition Assay (DiFMUP substrate, bisphos-IRS1 peptide activation)
Assay type: biochemical
Details: 0.5 μM bisphos-IRS1 peptide, 100 uM DiFMUP, room temperature
Experimental: At the basal state, SHP2 is auto-inhibited and access of substrates to the catalytic site is blocked by the […] interactions between the SH2 domains and the PTP domain. When bis-tyrosyl-phosphorylated peptides bind to SH2 domain of SHP2, the PTP domain becomes available for substrate recognition and reaction catalysis and SHP2 is allosterically activated. SHP2 catalytic activity can be measured using a fluorogenic artificial substrate DiFMUP.
The phosphatase reactions were carried out at room temperature in 384-well black polystyrene plates (Greiner Bio-One, Cat #784076) using assay buffers containing 60 mM HEPES, pH 7.2, 75 mM NaCl, 75 mM KCl, 1 mM EDTA, 0.05% P-20, and 5 mM DTT.
0.33 nM of […] was co-incubated with of 0.5 μM of bisphos-IRS 1 peptide (sequence: H2N-LN(pY)IDLDLV(dPEG8)LST(pY)ASINFQK-amide) and various concentrations of compounds for 30-60 min at room temperature. Then the reaction was initiated by addition of the surrogate substrate DiFMUP (Invitrogen, Cat #D6567, 100 uM final).
The real-time conversion of DiFMUP to DiFMU (6,8-difluoro-7-hydroxyl-4-methyl-coumarin) was measured every 5 min for 30 min using a microplate reader (CLARIOstar, BMG Labtech) with excitation and emission wavelengths of 340 nm and 450 nm, respectively. Initial reaction rates were determined by linear fitting of the data and the inhibitor dose response curves were analyzed using normalized IC50 regression curve fitting with control based normalization.

Structure (SMILES) | IC50
C[C@@H]1OCC2(CCN(c3ncc(Sc4ccnc5c4OC[C@@H]4C[C@H](F)CN54)nc3CO)CC2)[C@@H]1N [Compound 14, (3-((3S,4S)-4-amino-3-methyl-2-oxa-8-azaspiro[4.5]decan-8-yl)-6-(((6aS,8S)-8-fluoro-6a,7,8,9-tetrahydro-6H-pyrido[3,2-b]pyrrolo[1,2-d] [1,4]oxazin-4-yl)thio)pyrazin-2-yl)methanol] | 13 nM
C[C@@H]1OCC2(CCN(c3ncc(Sc4ccnc5c4OC[C@@H]4C[C@H](O)CN54)nc3CO)CC2)[C@@H]1N [Compound 18, (6aS,8S)-4-((5-((3S,4S)-4-amino-3-methyl-2-oxa-8-azaspiro[4.5]decan-8-yl)-6-(hydroxymethyl)pyrazin-2-yl)thio)-6a,7,8,9-tetrahydro-6H-pyrido[3,2-b]pyrrolo[1,2-d][1,4] oxazin-8-ol] | 6 nM
CO[C@H]1C[C@H]2COc3c(Sc4cnc(N5CCC6(CC5)CO[C@@H](C)[C@H]6N)c(CO)n4)ccnc3N2C1 [Compound 16, (3-((3S,4S)-4-amino-3-methyl-2-oxa-8-azaspiro[4.5]decan-8-yl)-6-(((6aS,8S)-8-methoxy-6a,7,8,9-tetrahydro-6H-pyrido[3,2-b]pyrrolo[1,2-d][1,4]oxazin-4-yl)thio)pyrazin-2-yl)methanol] | 8 nM

Second part, the compound after the results:

IC50 | Structure (SMILES)
8 nM | C[C@@H]1OCC2(CCN(c3ncc(Sc4ccnc5c4OC[C@@H]4C[C@@H](O)CN54)nc3CO)CC2)[C@@H]1N [Compound 19, (6aS,8R)-4-((5-((3S,4S)-4-amino-3-methyl-2-oxa-8-azaspiro[4.5]decan-8-yl)-6-(hydroxymethyl)pyrazin-2-yl)thio)-6a,7,8,9-tetrahydro-6H-pyrido[3,2-b]pyrrolo[1,2-d][1,4]oxazin-8-ol]
12 nM | C[C@@H]1OCC2(CCN(c3ncc(Sc4ccnc5c4OC[C@@H]4C[C@H](O[C@@H]6CCOC6)CN54)nc3CO)CC2)[C@@H]1N [Compound 28, (3-((3S,4S)-4-amino-3-methyl-2-oxa-8-azaspiro[4.5]decan-8-yl)-6-(((6aS,8S)-8-(((R)-tetrahydrofuran-3-yl)oxy)-6a,7,8,9-tetrahydro-6H-pyrido[3,2-b]pyrrolo[1,2-d][1,4]oxazin-4-yl)thio)pyrazin-2-yl)methanol]
5 nM | C[C@@H]1OCC2(CCN(c3ncc(Sc4ccnc5c4OC[C@@H]4C[C@@H](F)CN54)nc3CO)CC2)[C@@H]1N [Compound 15, (3-((3S,4S)-4-amino-3-methyl-2-oxa-8-azaspiro[4.5]decan-8-yl)-6-(((6aS,8R)-8-fluoro-6a,7,8,9-tetrahydro-6H-pyrido[3,2-b]pyrrolo[1,2-d] [1,4]oxazin-4-yl)thio)pyrazin-2-yl)methanol]
